What was measured:
[1] = system: AML-12 hepatocyte cell line; assay: Glutathione assay (total glutathione, GSH-Glo); format: cell-based, mouse; conditions: for EC50: Mus musculus, AML12, AML-12 cells, 24 hours, total glutathione, read-out: GSH EC50 (nM) (Mean ± SD); for GSH EC50 Relative to RTA 402 (fold) (Mean ± SD): benchmark RTA 402
Summary of the method: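 Mouse AML-12 hepatocytes were treated with compound (0.03 nM to 1000 nM, 0.1% DMSO) for 24 hours at 37° C., and total glutathione was measured by GSH-Glo luminescence against a glutathione standard curve. EC50 values came from nonlinear regression, with basal glutathione set to 0% and the maximal compound-induced level set to 100%.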

[2] = system: AREc32 reporter cell line (antioxidant response element of rat Gsta2, Nrf2 target gene); assay: AREc32 luciferase reporter activation; format: cell-based, human; conditions: for AREc32 EC2X Relative to RTA 402 (fold) (Mean ± SD): average of ratios from replicate experiments, benchmark RTA 402; for AREc32 Relative to CC in Same Experiment (Mean ± SD): average of ratios from experiments with direct comparisons; for EC (2-fold): human, Arec32, 19 h, concentration increasing luminescence signal 2-fold above vehicle, nineteen hours, read-out: AREc32 EC2X (nM) (Mean ± SD)
Summary of the method: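 MCF-7-derived cells carry luciferase driven by eight copies of the rat Gsta2 ARE. EC2X was extrapolated from a nonlinear fit of fold increase over vehicle.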

RAW 264.7 cells = assay: Nitric oxide suppression assay (IFNγ-induced NO production); format: cell-based, mouse; conditions: for IC50: Mus musculus, RAW264.7, RAW 264.7 cells, 2 h pretreatment, 20 ng/mL interferon gamma 24 h, nitrite by Griess, read-out: NO IC50 (nM) (Mean ± SD); for NO IC50 Relative to RTA 402 (fold) (Mean ± SD): average of ratios from replicate experiments, benchmark RTA 402
Summary of the method: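 Mouse RAW 264.7 macrophages in RPMI 1640 with 0.5% FBS were pretreated with compounds for 2 h at 37° C (0.1% DMSO final), then stimulated with 20 ng/mL IFNγ for 24 h. Nitrite in the supernatant was read at 525 nm against standards and normalized to DMSO/IFNγ wells. IC50 values were fitted with dependence on WST-1 viability.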

CYP3A4 = CYP3A4 (Homo sapiens, UniProt P08684); assay: CYP3A4 (midazolam) inhibition in human liver microsomes; conditions: for inhibition at 10 min, 1 μM: human, human liver microsomes, probe midazolam (5 μM); for CYP3A4 inhibition compared with historical data for RTA 402 and RTA 408: comparable conditions (FIG. 1); for CYP3A4 inhibition lower than the corresponding unsubstituted compound: vs CC2, CC1 or CC3, 1 μM
Chain of CYP3A4 (P08684 whole entry): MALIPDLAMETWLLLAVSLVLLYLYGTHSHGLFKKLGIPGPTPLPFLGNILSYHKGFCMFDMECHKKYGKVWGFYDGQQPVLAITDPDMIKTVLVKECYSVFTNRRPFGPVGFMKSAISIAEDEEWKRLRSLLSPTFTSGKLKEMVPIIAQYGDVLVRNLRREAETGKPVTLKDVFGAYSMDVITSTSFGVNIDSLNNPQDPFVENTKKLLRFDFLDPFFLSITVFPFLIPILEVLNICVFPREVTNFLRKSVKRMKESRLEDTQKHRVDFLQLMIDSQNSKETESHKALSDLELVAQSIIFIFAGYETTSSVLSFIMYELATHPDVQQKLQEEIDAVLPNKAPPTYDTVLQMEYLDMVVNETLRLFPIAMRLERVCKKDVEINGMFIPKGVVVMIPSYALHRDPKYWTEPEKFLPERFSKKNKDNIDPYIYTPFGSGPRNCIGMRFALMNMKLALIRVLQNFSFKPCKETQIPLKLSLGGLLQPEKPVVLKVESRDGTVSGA

Row | Compound | EC50 [1] [nM] | GSH EC50 Relative to RTA 402 (fold) (Mean ± SD) [1] | AREc32 EC2X Relative to RTA 402 (fold) (Mean ± SD) [2] | AREc32 Relative to CC in Same Experiment (Mean ± SD) ([2]; comparison compound CC3) | EC (2-fold) [2] [nM] | IC50 (RAW 264.7 cells) [nM] | NO IC50 Relative to RTA 402 (fold) (Mean ± SD) (RAW 264.7 cells) | inhibition at 10 min, 1 μM (CYP3A4) [%] | AREc32 Relative to CC in Same Experiment (Mean ± SD) ([2]; comparison compound CC1) | CYP3A4 inhibition compared with historical data for RTA 402 and RTA 408 (CYP3A4) | CYP3A4 inhibition lower than the corresponding unsubstituted compound (CYP3A4) [%] | AREc32 Relative to CC in Same Experiment (Mean ± SD) ([2]; comparison compound CC2)
1 | Cc1noc([C@]23CCC(C)(C)C[C@H]2[C@H]2C(=O)C=C4[C@@]5(C)C=C(C#N)C(=O)[C@@H](C)[C@@H]5CC[C@@]4(C)[C@]2(C)CC3)n1 [CC3, reference compound] | 1.16 ± 0.53 | 0.43 ± 0.14 | 0.66 ± 0.21 | 1.00 | 7.11 ± 1.15 | 1.34 | 0.40 ± 0.06 | 37.7 |  |  |  | 
2 | CC1(C)CC[C@]2(c3nnc(CF)o3)CC[C@]3(C)[C@H](C(=O)C=C4[C@@]5(C)C=C(C#N)C(=O)C(C)(C)[C@@H]5CC[C@]43C)[C@@H]2C1 [Compound T11] | 0.54 ± 0.29 | 0.32 ± 0.13 | 0.25 ± 0.08 |  | 3.23 ± 0.77 | 0.98 | 0.37 ± 0.07 | 17.7 | 0.27 ± 0.03 | reduced CYP3A4 inhibition | 15 | 
3 | CC1(C)CC[C@]2(c3nc(CF)no3)CC[C@]3(C)[C@H](C(=O)C=C4[C@@]5(C)C=C(C#N)C(=O)C(C)(C)[C@@H]5CC[C@]43C)[C@@H]2C1 [Compound T12] | 0.82 ± 0.4 | 0.50 ± 0.19 | 0.53 ± 0.12 |  | 6.87 ± 1.57 | 1.27 | 0.52 ± 0.12 | 29.7 |  | reduced CYP3A4 inhibition | 35 | 0.75 ± 0.05
4 | Cc1nnc([C@]23CCC(C)(C)C[C@H]2[C@H]2C(=O)C=C4[C@@]5(C)C=C(C#N)C(=O)C(C)(C)[C@@H]5CC[C@@]4(C)[C@]2(C)CC3)o1 [CC1, reference compound] | 1.09 ± 0.13 | 0.70 ± 0.12 | 0.79 ± 0.24 |  | 10.6 ± 2.73 | 2.05 | 0.78 ± 0.10 | 20.7 | 1.00 |  |  | 
5 | C[C@@H]1C(=O)C(C#N)=C[C@]2(C)C3=CC(=O)[C@@H]4[C@@H]5CC(C)(C)CC[C@]5(c5nc(CF)no5)CC[C@@]4(C)[C@]3(C)CC[C@@H]12 [Compound T34] | 0.35 ± 0.06 | 0.18 ± 0.02 | 0.36 ± 0.05 | 0.76 ± 0.14 | 4.5 ± 0.66 | 0.93 | 0.28 ± 0.06 | 29.4 |  | reduced CYP3A4 inhibition | 22 | 
6 | Cc1noc([C@]23CCC(C)(C)C[C@H]2[C@H]2C(=O)C=C4[C@@]5(C)C=C(C#N)C(=O)C(C)(C)[C@@H]5CC[C@@]4(C)[C@]2(C)CC3)n1 [CC2, reference compound] | 2 ± 1.24 | 0.80 ± 0.16 | 0.74 ± 0.16 |  | 8.59 ± 1.88 | 1.98 | 0.70 ± 0.18 | 45.8 |  |  |  | 1.00
